In data set [1] the test system is lymph nodes and lymphatic vessels of IL-15 transgenic mice. The experiment in a line: 3D-micro-MRL in IL-15 transgenic lymphoproliferative/neoplastic disease model. Type of data set: in vivo. As to conditions: 45 minutes after injection, FIGS. 11, 15A. The method, then:
Eight- to 10-month old IL-15 transgenic mice (on a C57BL6 background) were used as a chronic lymphoproliferative/neoplastic disease model because they manifested selective expansion of NK, CD8^+NK-T, γδIELs, and CD8 T cells in the periphery. Most of the lymph nodes collected from an aged IL-15 transgenic mouse were enlarged in size. The lesion of proliferated monoclonal lymphocytes often involved the lung and the subcutaneous lymphatic tissue.
(§1) The mice were anesthetized with 1.15 mg sodium pentobarbital (Dainabot, Osaka, Japan) i.p., and then injected intracutaneously with 0.1 μmolGd of PAMAM-G8, DAB-G5, PAMAM-G4, Gadomer-17, or GPDM into four middle phalanges in all four extremities. Dynamic micro-MR images were obtained using a 1.5-Tesla superconductive magnet unit (Signa LX, General Electric Medical System, Milwaukee, Wis.) with a round birdcage type coil of 3 cm diameter fixed by a custom-made coil holder. Four to eight female mice (7 weeks old, 18-21 g body weight) in each group were used and each contrast agent was prepared at least three separate times for these imaging studies. The mice were wrapped with gauze to stabilize their body temperature and were placed at the center of the coils.
A 3D-fast spoiled gradient echo [3D-fastSPGR (efgre3d package; Signa Horizon, GE); repetition time/echo time 28.5/7.9 msec; inversion time 65 msec; 31.2 kHz, flip angle 30°, four excitations; 40 slice-encoding steps; scan time 7 min 36 seconds] with chemical shift fat-suppression was used 10, 20, 30, and 45 min after injection of the contrast agents. The coronal images were reconstructed with 0.6-mm section thickness at every 0.3-mm. […] The intensities of the regions of interest (ROIs) (for example, a whole axillary lymph node, and the liver) were measured, and then the time-intensity curves analyzed. The data were expressed as the axillary lymph node-to-muscle and the axillary lymph node-to-liver ratios. […] Two board-certified radiologists separately read a set of stereo views of 3D-MRL for all studies, and estimated the visualization of the thoracic duct. […]

Data set [2] deals with deep lymphatic system. The experiment in a line: Whole-body dynamic 3D-micro-MR lymphangiography of normal mice (Example 2). It is filed as in vivo. The note with it: for Number of Mice in Which the Thoracic Duct was Visualized/Number of Mice Examined: Normal Mice, 0.1 μmolGd intracutaneously into four middle phalanges; for Axillary lymph node-to-background (muscle) signal intensity ratio, comparison between agents: T1-weighted signal, P<0.01, FIG. 9A; for Axillary lymph node-to-background (muscle) signal intensity ratio, comparison between agents / Axillary lymph node-to-liver signal intensity ratio, comparison between agents: all time points examined; for Axillary lymph node-to-liver signal intensity ratio, comparison between agents: P<0.01, FIG. 9B; for Visualization of the deep lymph nodes: normal mice, 10 to 45 min after intracutaneous injection, FIGS. 7, 8. The method, then: as §1
(§2) A 3D-fast spoiled gradient echo [3D-fastSPGR (efgre3d package; Signa Horizon, GE); repetition time/echo time 28.5/7.9 msec; inversion time 65 msec; 31.2 kHz, flip angle 30°, four excitations; 40 slice-encoding steps; scan time 7 min 36 seconds] with chemical shift fat-suppression was used 10, 20, 30, and 45 min after injection of the contrast agents. The coronal images were reconstructed with 0.6-mm section thickness at every 0.3-mm. The FOV was 6×3 cm and the size of the matrix was 512×256. The intensities of the regions of interest (ROIs) (for example, a whole axillary lymph node, and the liver) were measured, and then the time-intensity curves analyzed. The data were expressed as the axillary lymph node-to-muscle and the axillary lymph node-to-liver ratios. The slice data were processed into 3D images using the MIP method with the same window and level (window 3500 and level 2300) (Advantage Windows, General Electric Medical System). Two board-certified radiologists separately read a set of stereo views of 3D-MRL for all studies, and estimated the visualization of the thoracic duct. After imaging, the mice were sacrificed by carbon dioxide inhalation.
Statistical analyses were performed using either Student's t-test or a one-way analysis of variance (ANOVA), with a pairwise comparison using the Bonferroni method for signal intensity curves (Statview; SAS Institute Inc., Cary, N.C.).

The nature of data set [3]: Distribution and survival properties of the dendrimer conjugates. The note with it: in vivo.
For data set [4], the system named is draining lymph nodes and lymphatic vessels. Put plainly: 3D dynamic mammo-lymphangiograms after sequential injection of GPDM and PAMAM-G6 into the mammary gland. Type of data set: in vivo, athymic nu/nu mice. As to conditions: 0.15 μmol Gd into mammary gland; GPDM imaged at 12, 24, 36 min, then PAMAM-G6 injected 36 minutes following GPDM. The method, then: Mice were anesthetized with 1.15 mg sodium pentobarbital (Dainabot, Osaka, Japan), and then injected with 0.15-0.24 μmol Gd/5-8 μL of the PAMAM-G6 contrast agent into normal mammary glands or mammary tissue surrounding a tumor (peritumorally). Dynamic micro-MR images were obtained using a 1.5-Tesla superconductive magnet unit (Signa LX, General Electric Medical System, Milwaukee, Wis.) with a birdcage type coil of 3 cm diameter fixed by a custom made coil holder. [Single and double “breast coils” used for imaging breasts in humans are commercially available, for example, from GE Medical Systems (Milwaukee, Wis.) and are routinely available in outpatient MRI centers] The mice were wrapped with gauze to stabilize their body temperature and were placed at the center of the coils. Athymic nu/nu mice (n=4) were anesthetized and injected with 0.15 μmol Gd of GPDM into the mammary gland, and images were taken 12, 24, and 36 min after injection. Following these three images, these mice were subsequently injected with 0.15 μmol Gd of PAMAM-G6 contrast agent in the mammary gland, and images were taken at 12 and 24 min post-injection of the PAMAM-G6 contrast agent (at 48 and 60 min post-injection of GPDM).

Data set [5] deals with deep lymph nodes, thoracic duct and lymphatic vessels. The experiment in a line: Whole-body 3D-micro-MR lymphangiography of normal mice, PAMAM-G8 versus GPDM (Example 3). As to conditions: intracutaneous injection, 0.05 mmolGd/kg (FIG. 13). Type of data set: in vivo. The protocol:
as §1, §2
In this example, the PAMAM-G8 contrast agent is compared to GPDM. PAMAM-G8 was prepared as described in Example 2, and GPDM was purchased (Schering AG, Berlin, Germany). Animal models, administration of the contrast agents, and 3D-micro-MRL were as described in Example 2.

Regarding “DAB-Am-128-(Gd-1B4M)128 dendrimer conjugate [DAB-G5]”, the “Lymph node findings on 3D-micro-MRL” value in data set [1] is reported as “considerable multiple lymph node swellings with central filling defects”. For the same compound, the “Number of Mice in Which the Thoracic Duct was Visualized/Number of Mice Examined” value in data set [2] (10 min) was 3/5; in data set [2] (20 min), 2/5; in data set [2] (30 min) it was 0/5; in data set [2] (45 min), 0/5. For the same compound, in data set [2], the “Axillary lymph node-to-background (muscle) signal intensity ratio, comparison between agents” value is “significantly higher than that obtained with either PAMAM-G8 or PAMAM-G4”. Also, the “Axillary lymph node-to-liver signal intensity ratio, comparison between agents” value in data set [2] was “nearly equivalent, but were significantly higher than that measured with GPDM”. The “Distribution within the lymphatic system” value in data set [3] is “tend to accumulate in the lymph nodes rather than the vessels”.
Turning to “PAMAM-G4D-(Gd-1B4M)64 dendrimer conjugate”, the “Number of Mice in Which the Thoracic Duct was Visualized/Number of Mice Examined” value in data set [2] (10 min) is 4/5; in data set [2] (20 min) it was 4/5; in data set [2] (30 min), 3/5; in data set [2] (45 min) it was 2/5. Further, the “Axillary lymph node-to-background (muscle) signal intensity ratio, comparison between agents” value in data set [2] was “significantly higher than that measured with Gadomer-17 and GPDM”. For the same compound, the “Axillary lymph node-to-liver signal intensity ratio, comparison between agents” value in data set [2] was “significantly higher than that acquired with PAMAM-G8, DAB G-5, or Gadomer-17”. In addition, the “Distribution within the lymphatic system” value in data set [3] is “tend to accumulate in the lymph nodes rather than the vessels”. The “Survival in the blood circulation and excretion” value in data set [3] is given as “short survival in the blood circulation due to a rapid renal excretion without significant retention in other organs”.
Regarding Gadomer-17 [reference compound], the “Number of Mice in Which the Thoracic Duct was Visualized/Number of Mice Examined” value in data set [2] (10 min) was 2/5; in data set [2] (20 min) it was 2/5; in data set [2] (30 min), 1/5; in data set [2] (45 min), 1/5. In data set [2], the “Axillary lymph node-to-background (muscle) signal intensity ratio, comparison between agents” value is listed as “significantly higher than that acquired with GPDM”. Also, the “Axillary lymph node-to-liver signal intensity ratio, comparison between agents” value in data set [2] is listed as “nearly equivalent, but were significantly higher than that measured with GPDM”. Also, the “Visualization of the deep lymph nodes” value in data set [2] was “allowed visualization of the deep lymph nodes, albeit not as clearly and brightly as the dendrimer-based agents”.
In the case of `CNC[C@H](O)[C@@H](O)[C@H](O)[C@H](O)CO.CNC[C@H](O)[C@@H](O)[C@H](O)[C@H](O)CO.O=C([O-])CN(CCN(CC(=O)[O-])CC(=O)O)CCN(CC(=O)[O-])CC(=O)O.[Gd+3]` [GPDM, gadopentetate dimeglumine, reference compound], the Image enhancement result in data set [2] (45 minutes after injection, FIG. 8B) was “Virtually no image enhancement”. For the same compound, the “Number of Mice in Which the Thoracic Duct was Visualized/Number of Mice Examined” value is 2/5 in data set [2] (10 min), 0/5 in data set [2] (20 min), 0/5 in data set [2] (30 min) and 0/5 in data set [2] (45 min). The “Visualization of the deep lymph nodes” value in data set [2] is “did not allow most of the lymph nodes to be visualized even at early times”. Also, in data set [4], the “Visualization of draining lymph nodes and lymphatic vessels (FIG. 3)” value is “not well visualized”. For the same compound, the “Visualization of deep lymph nodes throughout the body” value in data set [5] is recorded as “but not with GPDM”.

The values are drawn from patent US20050171424A1, “Methods for imaging the lymphatic system using dendrimer-based contrast agents” (The Gov. of the USA as rep. by the Secretary of the Dept. …, priority 2004, published 2005).
